Source: ChEMBL document CHEMBL1126778, “Adenosine A1 antagonists. 3. Structure-activity relationships on amelioration against scopolamine- or N6-((R)-phenylisopropyl)adenosine-induced cognitive disturbance” (J Med Chem, 1993)
pKi: −log10 of the molar value.

Columns and labels:
Rattus norvegicus [1] = experiment: Retention time in Scopolamine induced avoidance test (performed in rat) for antagonistic activity after peroral administration of 1.25 mg/kg; format: functional, organism-based; parameters: dose 1.25 mg/kg
Mus musculus [2] = experiment: Retention time in (R)-PIA) induced avoidance test (performed in mice) for antagonistic activity after peroral administration of 5 mg/kg; format: functional, organism-based; parameters: dose 5 mg/kg
Rattus norvegicus [3] = experiment: Acquisition time in Scopolamine induced avoidance test (performed in rat) for antagonistic activity after p.o. administration of 0.31 mg/kg; format: functional; conditions: route oral
Rattus norvegicus [4] = experiment: Acquisition time in Scopolamine induced avoidance test (performed in rat) for antagonistic activity after peroral administration of 20 mg/kg; format: functional; conditions: route oral
Mus musculus [5] = experiment: Retention time in (R)-PIA) induced avoidance test (performed in mice) for antagonistic activity after peroral administration of 0.08 mg/kg; format: functional, organism-based; parameters: dose 0.08 mg/kg
Rattus norvegicus [6] = experiment: Retention time in Scopolamine induced avoidance test (performed in […]) for antagonistic activity after peroral administration of 5 mg/kg; format: functional, organism-based; parameters: dose 5 mg/kg
Adenosine A2 receptor = Adenosine A2 receptor (Homo sapiens, UniProt P29275+P29274); experiment: Binding affinity towards Adenosine A2 receptor of human platelets with [125I]-N6-aminobenzyladenosine
Mus musculus [7] = experiment: Retention time in (R)-PIA) induced avoidance test (performed in mice) for antagonistic activity after peroral administration of 0.31 mg/kg; format: functional, organism-based; parameters: dose 0.31 mg/kg
Rattus norvegicus [8] = experiment: Retention time in Scopolamine induced avoidance test (performed in rat) for antagonistic activity after p.o. administration of 0.31 mg/kg; format: functional, organism-based; parameters: dose 0.31 mg/kg
Mus musculus [9] = experiment: Acquisition time in (R)-PIA) induced avoidance test (performed in mice) for antagonistic activity after peroral administration of 5 mg/kg; format: functional; conditions: route oral
Mus musculus [10] = experiment: Acquisition time in (R)-PIA) induced avoidance test (performed in mice) for antagonistic activity after p.o. administration of 1.25 mg/kg; format: functional; conditions: route oral
Mus musculus [11] = experiment: Acquisition time in (R)-PIA) induced avoidance test (performed in mice) for antagonistic activity after peroral administration of 0.02 mg/kg; conditions: route oral
Mus musculus [12] = experiment: Retention time in (R)-PIA) induced avoidance test (performed in mice) for antagonistic activity after p.o. administration of 1.25 mg/kg; format: functional, organism-based; parameters: dose 1.25 mg/kg
Mus musculus [13] = experiment: Acquisition time in (R)-PIA) induced avoidance test (performed in mice) for antagonistic activity after p.o. administration of 0.31 mg/kg; format: functional; conditions: route oral
Mus musculus [14] = experiment: Retention time in (R)-PIA) induced avoidance test (performed in mice) for antagonistic activity after peroral administration of 0.02 mg/kg
Rattus norvegicus [15] = experiment: Acquisition time in Scopolamine induced avoidance test (performed in rat) for antagonistic activity after peroral administration of 1.25 mg/kg; format: functional; conditions: route oral
Mus musculus [16] = experiment: Acquisition time in (R)-PIA) induced avoidance test (performed in mice) for antagonistic activity after peroral administration of 0.08 mg/kg; format: functional; conditions: route oral
Adenosine receptor A1 = target: T1, Adenosine receptor A1 (Bos taurus, UniProt P28190); experiment: Binding affinity towards Adenosine A1 receptor of bovine brain at 10e-5 M with [125I]-N6-aminobenzyladenosine
T1 sequence (P28190 whole entry): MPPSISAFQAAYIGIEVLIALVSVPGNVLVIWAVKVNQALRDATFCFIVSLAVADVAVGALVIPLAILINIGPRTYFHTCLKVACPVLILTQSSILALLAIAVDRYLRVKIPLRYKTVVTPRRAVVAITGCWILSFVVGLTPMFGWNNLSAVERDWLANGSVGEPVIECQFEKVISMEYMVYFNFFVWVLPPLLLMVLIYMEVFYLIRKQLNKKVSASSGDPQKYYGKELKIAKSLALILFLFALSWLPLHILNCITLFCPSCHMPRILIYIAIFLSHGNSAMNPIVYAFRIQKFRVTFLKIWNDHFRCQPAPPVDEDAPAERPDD

Rattus norvegicus [17] = experiment: Retention time in Scopolamine induced avoidance test (performed in rat) for antagonistic activity after peroral administration of 20 mg/kg; format: functional, organism-based; parameters: dose 20 mg/kg
Rattus norvegicus [18] = experiment: Acquisition time in Scopolamine induced avoidance test (performed in rat) for antagonistic activity after p.o. administration of 5 mg/kg; format: functional; conditions: route oral
Rattus norvegicus [19] = experiment: Retention time in Scopolamine induced avoidance test (performed in rat) for antagonistic activity after p.o. administration of 0.08 mg/kg; format: functional, organism-based; parameters: dose 0.08 mg/kg
Rattus norvegicus [20] = experiment: Acquisition time in Scopolamine induced avoidance test (performed in rat) for antagonistic activity after p.o. administration of 0.08 mg/kg; format: functional; conditions: route oral

Question: How did the Retention time (Rattus norvegicus [1]) turn out when `CCCn1c(=O)c2nc(C3CCCC3)[nH]c2n(CCc2ccc(NC(=O)C(C)C)cc2)c1=O` was run?
Answer: 19.3 s

Question: What about the Retention time (Mus musculus [2]) of the same compound?
Answer: 94.7 s

Question: And the Acquisition time (Rattus norvegicus [3])?
Answer: 10.1 s

Question: And the Acquisition time (Rattus norvegicus [4])?
Answer: 9 s

Question: And the Retention time (Mus musculus [5])?
Answer: 32.9 s

Question: And the Retention time (Rattus norvegicus [6])?
Answer: 20 s

Question: And the Ki (Adenosine A2 receptor)?
Answer: > 100000 nM

Question: What about the Retention time (Mus musculus [7]) of the same compound?
Answer: 88.6 s

Question: What about the Retention time (Rattus norvegicus [8]) of the same compound?
Answer: 18.6 s

Question: What about the Acquisition time (Mus musculus [9]) of the same compound?
Answer: 34.4 s

Question: What about the Acquisition time (Mus musculus [10]) of the same compound?
Answer: 33.3 s

Question: And the Acquisition time (Mus musculus [11])?
Answer: 6 s

Question: What about the Retention time (Mus musculus [12]) of the same compound?
Answer: 171 s

Question: And the Acquisition time (Mus musculus [13])?
Answer: 29.3 s

Question: What about the Retention time (Mus musculus [14]) of the same compound?
Answer: 9.4 s

Question: And the Acquisition time (Rattus norvegicus [15])?
Answer: 6.6 s

Question: What about the Acquisition time (Mus musculus [16]) of the same compound?
Answer: 16 s

Question: What about the pKi (Adenosine receptor A1) of the same compound?
Answer: 7.80

Question: What about the Retention time (Rattus norvegicus [17]) of the same compound?
Answer: 65.4 s

Question: What about the Acquisition time (Rattus norvegicus [18]) of the same compound?
Answer: 11.9 s

Question: What about the Retention time (Rattus norvegicus [19]) of the same compound?
Answer: 10.7 s

Question: And the Acquisition time (Rattus norvegicus [20])?
Answer: 10.1 s
